Here are results for two molecules from publication PMC8442276, “Inter-laboratory comparison of water solubility methods applied to difficult-to-test substances” (BMC Chemistry, 2021).

Converted amounts (≈) assume the structure as drawn. Like-named read-outs stand apart in the source and are kept apart here. Marks after values point to notes of the source that are not given here.

The nature of data set [1]: Water solubility by column elution (generator column) method, OECD 105. In kind it is physicochemical. The source says:
The column elution method as applied in this ring test is described in several regulatory test guidelines. The typical generator column consists of two concentric glass columns. The inner, narrow column is packed with test substance. The solid test substance is typically dissolved in a volatile solvent which is then pre-loaded onto an inert support phase (e.g. glass beads, diatomaceous earth, chromatographic support material) by rotary evaporation to coat the support phase and then remove the solvent. Alternatively, some practitioners load the column directly with ca. 0.5 g of neat test substance which is retained with plugs of fused silica wool. The outer column provides temperature control (20 °C) as it is connected to a recirculating water bath. Reagent grade water is pumped through the inner column contacting the test substance column at a low flow rate (i.e. < 1 mL/min). The water eluate is collected, extracted and analyzed. Consecutive fractions are collected until the concentration of test substance in water plateaus indicating equilibrium water solubility has been reached. The experiment is then repeated at a flow rate approximately one-half that applied in the first trial to confirm that equilibrium has been reached. In this ring test, two of the five participating labs applied dodecahydrotriphenylene dissolved in solvent to an inert support phase. The solvent was evaporated and the support phase coated with the test compounds. The remaining three laboratories packed the columns with neat test substance. Across the five laboratories, the column flow for the first run ranged from 0.4 to 0.8 mL/min. The volume of each fraction collected for analysis ranged from 5 to 25 mL. Details of the experimental parameters used by each of the participating labs in applying the generator column method are listed in Additional file 1: Table S1.

Data set [2] in a line: Water solubility by slow-stir method. The conditions noted are these: for solubility: reagent grade water in sealed all-glass aspirator bottles. In kind it is physicochemical. As to the method: The slow-stir water solubility method uses glass vessels, at least one liter in volume, to which reagent grade water is added. The typical bottle contains a sampling port or spigot at the bottom of the vessel and is filled to a water column height approximating that of the vessel’s tapered shoulders. Slow stir systems are depicted in Additional file 1: Figure S1. This configuration minimizes headspace but maximizes the test substance—water interface. […] The top opening of the vessels is tightly sealed to minimize volatile loss of neat test substance from the system. The excess test substance provides a supply of free product to dissolve and, in the case of volatile substances, evaporate into the headspace. The system is mixed with a minimal vortex imparting just enough energy to move the small dollop of test substance and impart a slight dimple (< 0.5 cm) below the water surface. Care is taken to mix slowly so as to avoid emulsifying the test substance. Water samples are withdrawn from the bottom sampling port of the vessel, extracted and analyzed. As necessary, specific sampling techniques for dissolved volatile organics are used including: the use of gas tight syringes, minimizing sample transfer, and reduced storage duration prior to analysis. Sampling from slow-stir systems occurs over daily or weekly intervals until analysis indicates equilibrium has been reached representing maximum water solubility. Larger test (i.e. 8–20 L) vessels are generally used when the associated analytical method requires extraction of large water sample volumes and also provide a greater surface-to-volume ratio which can be advantageous, especially for surface active compounds. For substances where the solubility is extremely low (i.e. < 10 µg/L) lengthy equilibration periods (weeks-months) may be needed.
The slow-stir water solubility method is not currently cited in existing regulatory guidelines though a number of publications describe its application to difficult-to-test liquid compounds [11–14]. In this ring test, each laboratory employed all glass aspirator bottles with sampling spigots located toward the bottom of the vessels. Water volumes ranged from 0.8 to 4 L with initial vessel headspace accounting for 5 to 20% of the entire vessel volume. n-Hexylcyclohexane loadings ranged from 0.4 to 400 mg/L. The vessels were sealed with Teflon™, polypropylene, glass or high density polyethylene screw plugs or stoppers. Water was stirred at a rate imparting little to no visible vortex and stirring rates were estimated between 80 and 250 rpm. The specific experimental parameters used by each of the participating labs in applying the slow-stir method are listed in Additional file 1: Table S2.

Regarding `C1CCc2c(c3c(c4c2CCCC4)CCCC3)C1` [Dodecahydrotriphenylene], the “Mean Measured Concentration (water solubility)” value in data set [1] (Laboratory A, column packed directly with neat solid) was 2.8^p µg/L; in data set [1] (Laboratory B, test substance on support), 3.2 µg/L; in data set [1] (Laboratory C, test substance on support) it was 2.1 µg/L; in data set [1] (Laboratory D, column packed directly with neat solid), 2.3^p µg/L; in data set [1] (Laboratory E, column packed directly with neat solid, statistical outlier, not included in mean), 0.66 µg/L. Moreover, the “Mean measured water solubility, inter-laboratory mean” value in data set [1] (column elution, 20 °C, mean of n = 4 labs (Lab E excluded as outlier)) amounted to 0.0026 µg/mL. Also, the “Range of measured water solubility values across labs” value in data set [1] (column elution, 20 °C, n = 4 labs) was 0.0021 to 0.0032 µg/mL.
For `CCCCCCC1CCCCC1` [n-Hexylcyclohexane], the “Mean measured water solubility, inter-laboratory mean” value in data set [2] (20 °C, mean of n = 5 labs) was 0.014 µg/mL. The solubility is 0.014 µg/mL (≈ 0.0832 µM) in data set [2] (20 °C, mean of n = 5 labs, read-out: Mean measured water solubility, inter-laboratory mean); 0.011 to 0.016 µg/mL (≈ 0.0654 to 0.0951 µM) in data set [2] (20 °C, n = 5 labs, read-out: Range of measured water solubility values across labs); 0.012 µg/mL (≈ 0.0713 µM) in data set [2] (20 °C, water, thermodynamic from solid, Laboratory B, second attempt, read-out: Mean measured Concentration (water solubility)); 0.016 µg/mL (≈ 0.0951 µM) in data set [2] (20 °C, water, thermodynamic from solid, Laboratory E, second attempt, read-out: Mean measured Concentration (water solubility)); 0.015 µg/mL (≈ 0.0891 µM) in data set [2] (water, thermodynamic from solid, Laboratory A, read-out: Mean measured Concentration (water solubility)); 0.0056 µg/mL (≈ 0.0333 µM) in data set [2] (water, thermodynamic from solid, Laboratory B, first attempt, equilibrium not demonstrated, not included in mean, read-out: Mean measured Concentration (water solubility), first attempt). In addition, the solubility turned out to be 0.014 µg/mL (≈ 0.0832 µM) in data set [2] (water, thermodynamic from solid, Laboratory C, read-out: Mean measured Concentration (water solubility)); 0.011 µg/mL (≈ 0.0654 µM) in data set [2] (water, thermodynamic from solid, Laboratory D, read-out: Mean measured Concentration (water solubility)); 0.0057 µg/mL (≈ 0.0339 µM) in data set [2] (water, thermodynamic from solid, Laboratory E, first attempt, equilibrium not demonstrated, not included in mean, read-out: Mean measured Concentration (water solubility), first attempt).
